Data as given in patent publication US20080146555A1, “Uses of Kinase Inhibitors and Compositions Thereof” (GPC Biotech, Inc, priority 2004, published 2008).
Converted amounts (≈) assume the structure as drawn. “And” between values parts separate entries of the source, which are not always exact repeats. Identical values can stand only once. Counter-ions that a name gives are not always drawn. Like-named read-outs stand apart in the source and are kept apart here.

Key:
[1] = test system: NCI panel of 60 cell lines; assay: cells
Source text: The evaluation of compounds at the National Cancer Institute in their panel of 60 cell lines provides a wealth of information regarding efficacy in a wide range of tumor types and genetic backgrounds. Included within this panel are cell lines derived from leukemia, melanoma and cancers of the lung, colon, brain, ovary, breast, prostate and kidney. Use of this panel provides a measure of the efficacy of compounds in cells with alterations in many genes that are associated with neoplastic transformation including p53 and Her2/Neu as well as those involved in metabolism and those which confer multi-drug resistance. The data generated in these cell lines with the protocol described below can be used to evaluate the activity of compounds.
Cells were grown in RPMI-1640 10% FCS and plated in 96 well micro-titer plates at densities ranging from 5,000 to 40,000 cells/well. The plates were incubated for 24 hours at 37° C., 5% CO2 for 24 hours. Media containing twice the desired final concentration of the compound (5 doses spanning 4 logs) was prepared and 100 μl was added to each well containing 100 μl media plus cells to yield the desired final concentration. The plates were then incubated for an additional 48 hours.
The effect of the compound on cellular viability was determined with the Sulforhodamine B (SRB) assay, which measures total protein. Cells were fixed with cold TCA to a final concentration of 10% and incubated at 4° C. for 60 minutes. The supernatant was discarded and the plates were washed five times with water and air-dried. SRB solution at […] in 1% acetic acid was added to each well and the plates were incubated for 10 minutes at room temperature. The plates were washed five times with 1% acetic acid and air-dried. The bound stain was solubilized with 10 mM trizma base and the absorbance was read on a plate reader at […].

[2] = test system: KU812 leukemia cells (Bcr-Abl); assay: Proliferation of KU812 cells, calcein assay by flow cytometry; assay type: cell-based; conditions: Homo sapiens, KU812, 72 h, read-out: KU812 cells IC50 (proliferation)
Description: The proliferation of KU812 cells was assayed using the calcein viability assay described in Assay 3 but adapted for quantification by flow cytometry, briefly as follows: cells were recovered from sub-confluent plates by trypsinization and re-plated at a density of 1,000 cells/well in 24 well plates and incubated 24 hours to allow adherence. The media (RPMI-1640 supplemented with 10% FCS and Pen/Strep) was aspirated from each well and replaced with media containing the compound at a range from 0 to 0.250 μM. The plates were incubated for 3 days corresponding to approximately three cell cycles. Cellular viability was determined with the Calcein AM assay as follows. The cells were washed twice in PBS and incubated with 5 μM Calcein AM/PBS for 75 minutes before determining fluorescent units with a fluorescent plate reader. The Calcein AM assay was adapted for the flow cytometer by including an additional 1:16,000 dilution of the Calcein AM in PBS of which 200 ul was added to each sample of cells.

[3] = test system: Rb phosphorylation at Serine-780; assay: Rb phosphorylation; assay type: cell-based
[4] = target: T1, CDKs; assay: Kinase panel, CDKs (average/range); assay type: biochemical
T1 construct: IC50 range over CDK1-7; other: 6 CDKs / CDK1-7; Cdk2/his-cyclin Eshort was expressed in Sf9 cells; Cdk2/cyclin A, cdk4/cyclin D1, and cdk6/cyclin D2 were expressed in Sf9 cells

[5] = Aqueous solubility; assay type: physicochemical; conditions: water (aqueous solution)
[6] = Solution stability; assay type: physicochemical; conditions: pH6, room temperature, kept in dark
[7] = test system: HT29; assay: SRB cytotoxicity, HT29 parental cells; assay type: cell-based; conditions: Homo sapiens, HT-29, 72 h
Description: (§1) In these experiments, the P-glycoprotein expressing NCI-Adr resistant subline (Vickers et al., 1989. Mol Endocrinology 3 (1):157-164) was used. […] Briefly, cells were plated in 96 well dishes 24 hours prior to compound addition. Where noted, they were exposed to verapamil for 4 hours prior to compound addition and then throughout the treatment period (72 hours). The assay was terminated with the addition of cold TCA to a final concentration of 10% and the plates were incubated for one hour at 4° C. The plates were then washed 5 times with water and 100 μl of a Sulforhodamine B solution (4%) was added to each well. The plate was then incubated for 10 minutes at room temperature before removal of unbound dye by washing with 1% acetic acid.
(§2) The parental non-mutated cell line HT29 was used as a control.
(§3) Z. Cytotoxicity was measured using the SRB assay according to Shekan et al. as described above in Example 1A.

[8] = test system: HT29/mit; assay: SRB cytotoxicity, mitoxanthrone resistant cells; assay type: cell-based, human
Description: as §1, with “acid. The bound dye was solubilized with 10 mM Trizma base and the absorbance read at OD570.” for “acid.”
as §2, §3

[9] = test system: quiescent tumor cells; assay: Activity on quiescent tumor cells; assay type: cell-based
[10] = 6 CDKs / CDK1-7, read-out: average IC50 for CDKs

Row | Structure (SMILES) | NCI assay Ave TGI [1] [nM] | IC50 [2] [nM] | Rb phosphorylation at Serine-780 [3] | IC50 [4, 10] | IC50 ([4]; read-out: IC50 range over CDK1-7) [nM] | solubility [5] [mg/mL] | Solution stability [6] [mo.] | IC50 [7] [nM] | RR (relative resistance) HT29/mit vs HT29 [8] | IC50 ([8]; Homo sapiens, HT-29, 72 h, SRB) [nM] | IC50 ([2]; 3 days, calcein AM, flow cytometry) [nM] | IC50 [9] [nM]
1 | CC(C)N1CCN(C(=O)COc2ccc(-c3n[nH]c4c3C(=O)c3c(NC(=O)NN5CCOCC5)cccc3-4)cc2)CC1 [Compound A37] | 2060 | 85 | inhibits Rb phosphorylation at Serine-780 | ~42 nM and 42 nM | 3 to 155 | 15 to 20 (≈ 26.1 to 34.9 mM) | > 1 |  |  |  |  | 
2 | COCCN1CCN(Cc2ccc(-c3n[nH]c4c3C(=O)c3c(NC(=O)NN5CCOCC5)cccc3-4)cc2)CC1 [Compound B16, N-[3-(4-{[4-(2-methoxyethyl)piperazinyl]methyl}phenyl)-4-oxoindeno[2,3-d]pyrazol-5-yl](morpholin-4-ylamino)carboxamide dihydrochloride] |  |  |  | ~17 nM |  |  |  | 77 | 22.1 | 1700 | 54 | 11
